The test system of one data set is HUVEC. The data set can be described thus: Nascent protein synthesis assay (Click-iT metabolic labeling). In kind it is cell-based, human. Particulars: HUVECs; concentrations below 100 nM. On the procedure: Nascent Protein Synthesis Assay—
Nascent protein synthesis was measured using Invitrogen Click-iT® metabolic labeling reagents [Dieterich, D. C., et al., Nat Protoc 2, 532-40 (2007)]. HUVEC cultures were pre-incubated in methionine-free Dulbecco's Modified Eagle Medium (D-MEM) high glucose (Invitrogen, Life Technologies, Grand Island, N.Y.) supplemented with 10% dialyzed fetal bovine serum (Invitrogen) containing the control or test compounds. Cycloheximide (50 μM) was used as a positive control. After 45 minutes, 25 μM Click-iT® AHA (L-azidohomoalanine) (Invitrogen) was added and cultures were incubated for 3 h. Cells were lysed with 1% SDS in 50 mM Tris-HCl with protease and phosphatase inhibitors: 1 mM […], 20 […], and 4 […]. Extracts were sonicated and protein concentration was determined by Bradford assay. Protein samples were labeled with biotin alkyne (PEG4 carboxamide-propargyl biotin) (Invitrogen) using the Click-iT® Protein Reaction Buffer Kit (Invitrogen) according to manufacturer's instructions. Equal concentrations of protein were run on a 10% SDS-PAGE and transferred to nitrocellulose membrane, incubated with streptavidin-HRP reagent (Pierce Thermo Scientific, Rockford, Ill.) followed by reaction with ECL reagent (Pierce) and exposed on film.

The target of a further data set is T1, TARS (Homo sapiens, UniProt P26639).
T1 sequence (P26639 1-723): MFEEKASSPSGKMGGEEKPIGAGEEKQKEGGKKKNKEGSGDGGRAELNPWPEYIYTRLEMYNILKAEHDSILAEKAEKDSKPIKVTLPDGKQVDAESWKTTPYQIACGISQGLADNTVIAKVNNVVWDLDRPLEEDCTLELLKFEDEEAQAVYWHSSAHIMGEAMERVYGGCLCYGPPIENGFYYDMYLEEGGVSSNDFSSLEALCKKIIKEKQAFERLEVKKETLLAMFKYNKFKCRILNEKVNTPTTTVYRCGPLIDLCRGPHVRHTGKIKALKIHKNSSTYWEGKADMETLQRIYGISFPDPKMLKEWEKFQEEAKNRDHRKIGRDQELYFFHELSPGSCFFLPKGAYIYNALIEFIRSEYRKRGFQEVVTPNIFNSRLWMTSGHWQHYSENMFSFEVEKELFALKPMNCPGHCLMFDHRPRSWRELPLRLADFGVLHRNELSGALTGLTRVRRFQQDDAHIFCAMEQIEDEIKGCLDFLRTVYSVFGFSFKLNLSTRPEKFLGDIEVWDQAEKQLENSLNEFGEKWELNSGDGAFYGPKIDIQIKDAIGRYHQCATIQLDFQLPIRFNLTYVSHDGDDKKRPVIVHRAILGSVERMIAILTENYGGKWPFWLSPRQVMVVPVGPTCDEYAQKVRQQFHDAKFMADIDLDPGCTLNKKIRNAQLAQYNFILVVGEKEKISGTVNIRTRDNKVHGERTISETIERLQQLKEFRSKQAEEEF
Particulars: calculated; see Williams, Mirando et al. 2013; cited from earlier work.

The test system of another data set is SKOV-3 cells. The data set can be described thus: HIF-1α stabilization in hypoxia (Western blot). In kind it is cell-based. On the procedure: After treatments, cells were harvested into sample buffer containing: 0.2 M Tris-HCL, 4% SDS, 4% β-mercaptoethanol, 40% glycerol, 4 μM pyronin Y. Extracts were sheared through a 24-gauge syringe. Samples were separated by 10% SDS-PAGE and transferred to nitrocellulose membrane and probed with rabbit polyclonal anti-TARS (1:500; Santa Cruz Biotechnology, Dallas, Tex.) or monoclonal anti-HIF-1α (BD Transduction Laboratories, [BD Biosciences, San Jose, Calif.]) (Lounsbury, Beddow et al. 1994). Secondary antibodies were HRP-goat-anti-mouse and HRP-goat-anti-rabbit (1:5,000; Jackson Laboratories, Bar Harbor, Me.).

A further data set relates to HUVECs. Put plainly: Western blot for unfolded protein response (phospho-eIF2α) and apoptosis (cleaved caspase-3). In kind it is cell-based, human. The settings on record: HUVECs in full serum media. On the procedure:
After treatments, cells were harvested into sample buffer containing: 0.2 M Tris-HCL, 4% SDS, 4% β-mercaptoethanol, 40% glycerol, 4 μM pyronin Y. Extracts were sheared through a 24-gauge syringe. Samples were separated by 10% SDS-PAGE and transferred to nitrocellulose membrane and probed with specific antibody as described (Lounsbury, Beddow et al. 1994). Primary antibodies are as follows: Rabbit monoclonal anti-P-eIF2α (1:1000; Cell Signaling Technology, Danvers, Mass.), rabbit monoclonal anti-Cleaved Caspase-3 (1:1000; Cell Signaling Technology, Danvers, Mass.), rabbit polyclonal anti-TARS (1:500; Santa Cruz Biotechnology, Santa Cruz, Calif.). Loading control antibodies were rabbit monoclonal anti-β-actin and anti-β-tubulin (1:1000; Cell Signaling Technology, Danvers, Mass.). Secondary antibodies were HRP-goat-anti-mouse and HRP-goat-anti-rabbit (1:5,000; Jackson Laboratories, Bar Harbor, Me.).
A general note: Immunoblotting shows a protein as a band on a membrane.

For data set [1], the system named is von Hippel Lindau protein (VHL). The data set can be described thus: Co-immunoprecipitation of TARS and VHL from transfected HEK293 cells. In kind it is binding, human. The settings on record: biotinylated TARS construct precipitated with streptavidin beads, HEK cells. On the procedure:
Plasmids expressing biotinylatable TARS (pTARS) and myc-tagged VHL (pVHL) were transfected into HEK293 cells, and then extracts were prepared. Biotin-TARS was precipitated using streptavidin-coupled beads. Myc-VHL was precipitated using anti-myc antibodies. Precipitates were separated by SDS-PAGE, transferred and blots probed with anti-TARS antibody or anti-myc (VHL) antibody.

Another data set has as its system tRNAThr. The data set can be described thus: Steady state aminoacylation assay. In kind it is biochemical, E. coli or human. The settings on record: purified recombinant protein. On the procedure:
Steady State Aminoacylation Assay—
The aminoacylation activities of the TARS constructs were determined using modifications to established procedures (Francklyn et al 2008). Briefly, reaction mixtures consisted of 20 mM Tris-HCl pH 8.0, 100 mM KCl, 10 mM MgCl2, 1 mM dithiothreitol, 2 mM ATP, 2.5 U pyrophosphatase (Roche), 80 μM threonine, 20 μM [14C]-threonine, and 5 μM of E. coli or human tRNAThr. Reactions were initiated with the addition of 0.25-0.75 μM TARS and run at 37° C. Aliquots were taken at varying time points and spotted onto Whatmann 3MM paper filters pre-soaked in 5% trichloroacetic acid (TCA). Upon completion, the filters were washed 3 times in excess TCA, once in 95% ethanol, and dried under a heating lamp. The formation of Thr-tRNAThr was detected by scintillation counter and the activity determined by linear regression of threonyl-tRNAThr formed per active site per unit time.

Entries after “also recorded” stand apart in the source; their conditions may differ.

Broadly, the Ki is the equilibrium dissociation constant of an inhibitor or competing ligand from its target.

Sequence of von Hippel Lindau protein (VHL) (P40337 54-213 limits assumed): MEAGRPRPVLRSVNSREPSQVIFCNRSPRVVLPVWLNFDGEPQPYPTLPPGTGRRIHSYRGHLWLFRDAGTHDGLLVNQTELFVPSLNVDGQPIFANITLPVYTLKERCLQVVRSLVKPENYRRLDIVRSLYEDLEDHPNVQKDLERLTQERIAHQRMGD

For `C[C@@H]1C[C@H](C)C[C@H](C)[C@@H](O)CC(=O)O[C@H]([C@@H]2CC[C@H]2C(=O)O)C/C=C/C=C(/C#N)[C@H](O)[C@@H](C)C1` [BC194], in the data set on HUVEC, the nascent protein synthesis result is reported as “unaffected; also recorded: lack of effect”. Moreover, on TARS, the Ki was 4.1 nM. Besides, the HIF-1α transcription result in the data set with SKOV-3 cells (SK-OV3 cells responding to hypoxia) is on record as “no change in HIF-1α transcription”. Besides, in the data set on SKOV-3 cells (hypoxia (2% O2), 6 h), the HIF-1α protein stabilization entry is recorded as “diminished the levels of HIF-1α protein stabilization; also recorded: reduce HIF-1α stabilization”. In addition, the “stimulation of unfolded protein response (phospho-eIF2α) and apoptosis (cleaved caspase-3)” value in the data set with HUVECs was “high concentrations of BC194 are required”.

B1: TARS: N-terminal His6-tagged human threonyl-tRNA synthetase expressed and purified from E. coli; SEQ ID NO:2 (protein, listed as Homo sapiens)
chain: T1 sequence (P26639 1-723)
modifications: N-terminal His6 tag
As for B1, the “co-precipitation of VHL” value in data set [1] is on record as “the VHL protein is co-precipitated”. The aminoacylation activity entry with tRNAThr was “exhibits aminoacyl synthetase activity”.
